Data published in patent US9650369B2, “Anti-migration and anti-invasion thiazole analogs for treatment of cellular proliferative disease” (XAVIER UNIVERSITY OF LOUISIANA, priority 2012, dated 2017).
pIC50: −log10 of the molar value. Entries after “also recorded” stand apart in the source; their conditions may differ. Read-outs that look alike come from different tables or passages of the source.

Legend:
Assay type in all cases: cell-based
[1] = system: MDA-MB-231 breast cancer cells; experiment: clonogenic assay (colony formation), MDA-MB-231; conditions: for activity at 10 µM / inhibition at 10 µM: Homo sapiens, 336 h; for activity at 10 µM / Effect on cell proliferation (colony formation) (% of vehicle control): MDA-MB-231, 10 μM analogs, 14 days; for activity at 10 µM: read-out: Effect on cell proliferation (colony formation) (% of vehicle control); for cytotoxicity (in words) / inhibition at 10 µM: MDA-MB-231, 10 μM, two weeks
Protocol: (§1) To determine if these analogs have anti-migration and anti-invasion activities in different cancer cell lines, transwell migration assays were performed using MDA-MB-231 breast cancer cells (FIG. 3) and HeLa cells (FIG. 5) for all synthetic analogs. […] Next, clonogenic assays were performed on the breast cancer cells treated with the compounds to rule out any indirect effect on cell migration due to cytotoxicity (FIG. 4). MDA-MB-231 cells were allowed to grow for 14 days in six-well plates in the presence or absence of the synthetic compounds at 10 μM.
To rule out any indirect effect on cell migration due to cytotoxicity, clonogenic assays were performed on the breast cancer cells treated with the compounds. MDA-MB-231 cells were allowed to grow for 14 days in six-well plates in the presence or absence of the synthetic compounds at 10 μM. […] For example, analog 3g blocked both cell migration (81.4%) and colony formation (42.7%). For these analogs cytotoxity may have partially contributed to their overall anti-migration effect. The cell toxicity data for all analogs are listed in Table 1 along with anti-migration data for comparison.

[2] = system: MDA-MB-231 breast cancer cells; experiment: transwell migration assay, MDA-MB-231; conditions: for inhibition at 10 µM: MDA-MB-231, MDA-MB-231, 10 μM, read-out: inhibition of cell migration; for pIC50: transwell migration of MDA-MB-231 cells, read-out: IC50 (anti-migration)
Protocol: as §1
To determine the effects of the synthesized mackroketone analogs on cancer cell migration, we performed transwell migration assay on each compound using an invasive and metastatic breast cancer cell line, MDA-MB-231. When cells were seeded at a density of 2.5×10^4 in media free of serum in the upper chamber but containing 5% FBS in the lower chamber, their ability to migrate in the presence and absence of 10 μM analogs were measured by counting the total number of cells in the lower chamber after 24 hrs.

HeLa cells [3] = experiment: colony formation, HeLa
From the text: (§2) Based on the potent effects of synthetic thiazole analogs in blocking migration of MDA-MB-231 cells, ten analogs with high anti-migration activity but low or negligible cytotoxicity were selected to test their anti-migration activity in another metastatic cell line, HeLa. […] On the other hand, the analog 5i was not toxic to 231 cells, but it suppressed the clonogenic capability of HeLa cells by 45%. […] Thus 5k may be further evaluated for its potential as an anti-migration and anti-metastatic agent.

[4] = system: fascin in MDA-MB-231 cells; experiment: fascin localization by immunofluorescence microscopy
From the text: Co-localization of f-actin and fascin appears as white pixels.
To further probe for a possible role of fascin in the reduction of actin-rich membrane protrusions, we determined the localization of fascin by immunofluorescence microscopy.

HeLa cells [5] = experiment: transwell migration, HeLa; conditions: Homo sapiens
Protocol: as §1, §2

[6] = system: A549 non small cell lung cancer cells; experiment: migration assay, A549; conditions: A549, 10 μM
[7] = system: f-actin in membrane protrusions of MDA-MB-231 cells; experiment: f-actin staining of actin-rich membrane protrusions (fluorescent microscopy); conditions: MDA-MB-231, 10 μM, serum stimulated 2 hours; p<0.01
From the text: An essential component of migration is protrusion of the cell membrane, which is driven by actin polymerization. […] See Chen, L.; Yang. S.; Jakoncic, J.; Zhang, J. J.; Huang, X. Y. Migrastatin analogues target fascin to block tumour metastasis. Nature 2010; 464:1062-1066. Erratum in: Nature. 2011; 476:240; Hashimoto, Y., D. J. Kim, and J. C. Adams. The roles of fascins in health and disease. J. Pathol. 2011; 224:289-300; and Jayo, A., and M. Parsons. Fascin: a key regulator of cytoskeletal dynamics. Int. J. Biochem. Cell Biol. 2010; 42:1614-1617. […] See Chen, 2010. Thus, we tested the hypothesis that compound 5k interferes with f-actin in membrane protrusions associated with cell motility. MDA-MB-231 cells were serum starved −/+10 μM 5k, then stimulated with serum for 2 hours to induce actin-rich membrane protrusions, which were analyzed by fluorescent microscopy.

[8] = system: MDA-MB-231 breast cancer cells; experiment: matrigel invasion assay, MDA-MB-231; conditions: MDA-MB-231, matrigel
From the text: To determine if the synthetic thiazole analogs block invasion of metastatic cancer cells we performed matrigel invasion assays of MDA-MB-231 cells treated with 10 selected analogs.

Row | pIC50 ([2]; Homo sapiens) | SMILES | activity at 10 µM [1] | further results
1 | – | Cc1ccc(-c2csc(N)n2)c(C)c1 [Compound 2b, 2-Amino-4-(2,4-dimethylphenyl)thiazole] | 111% | cytotoxicity (in words) [1]: no apparent cell toxicity; inhibition at 10 µM ([2]; Homo sapiens): > 50%
2 | 5.60 | O=C(Nc1nc(-c2ccccc2)cs1)c1cccs1 [Compound 3a, N-(4-Phenylthiazol-2-yl)thiophene-2-carboxamide] | 85.9% | –
3 | – | COc1ccc(C(=O)Nc2nc(-c3ccccc3)cs2)cc1OC [Compound 3g, 3,4-Dimethoxy-N-(4-phenylthiazol-2-yl)benzamide] | 57.3% | inhibition at 10 µM [1]: 42.7%; inhibition at 10 µM ([2]; Homo sapiens): > 80%
4 | 5.54 | O=C(Nc1nc(-c2ccccc2)cs1)c1ccncc1 [Compound 3i, N-(4-Phenylthiazol-2-yl)isonicotinamide] | 95.5% | –
5 | 5.89 | O=C(Nc1nc(-c2ccccc2)cs1)c1ccccc1 [Compound 3j, N-(4-Phenylthiazol-2-yl)benzamide] | 105% | –
6 | 6.00 | CCCCCCCCCCCC(=O)Nc1nc(-c2ccccc2)cs1 [Compound 3n, N-(4-Phenylthiazol-2-yl)dodecanamide] | 71.5% | inhibition at 10 µM [1]: 30%; cytotoxicity (in words) [1]: no apparent cell toxicity; inhibition at 10 µM ([2]; Homo sapiens): > 50%; cytotoxicity (in words) (HeLa cells [3]): no apparent cytotoxicity
7 | 6.08 | Cc1ccc(-c2csc(NC(=O)c3ccccc3)n2)c(C)c1 [Compound 3o, N-(4-(2,4-dimethylphenyl)thiazol-2-yl)benzamide] | 85% | –
8 | – | COc1ccc(C(=O)N(C)c2nc(-c3ccccc3)cs2)cc1OC [Compound 4c, 3,4-Dimethoxy-N-methyl-N-(4-phenylthiazol-2-yl)benzamide] | 97.1% | –
9 | – | CCN(C(=O)c1ccco1)c1nc(-c2ccccc2)cs1 [Compound 4d, N-Ethyl-N-(4-phenylthiazol-2-yl)furan-2-carboxamide] | 96.5% | –
10 | 6.44 | CN(C(=O)c1ccccc1)c1nc(-c2ccccc2)cs1 [Compound 4e, N-Methyl-N-(4-phenylthiazol-2-yl)benzamide] | 123% | cytotoxicity (in words) [1]: no apparent cell toxicity; inhibition at 10 µM ([2]; Homo sapiens): > 50%
11 | – | CN(C(=O)C1CCCC1)c1nc(-c2ccccc2)cs1 [Compound 4f, N-Methyl-N-(4-phenylthiazol-2-yl)cyclopentanecarboxamide] | 132% | –
12 | – | CN(C(=O)C1CCCCC1)c1nc(-c2ccccc2)cs1 [Compound 4g, N-Methyl-N-(4-phenylthiazol-2-yl)cyclohexanecarboxamide] | 97.5% | –
13 | – | CCCCCC(=O)N(C)c1nc(-c2ccccc2)cs1 [Compound 4h, N-Methyl-N-(4-phenylthiazol-2-yl)hexanamide] | 128% | –
14 | – | CCCCCCCCCCCC(=O)N(C)c1nc(-c2ccccc2)cs1 [Compound 4i, N-Methyl-N-(4-phenylthiazol-2-yl)dodecanamide] | 111% | –
15 | – | Cn1c(-c2ccccc2)cs/c1=N/C(=O)c1cccs1 [Compound 5a, N-(3-Methyl-4-phenylthiazol-2(3H)-yliene)thiophene-2-carboxamide] | 85% | –
16 | – | Cn1c(-c2ccccc2)cs/c1=N/C(=O)c1ccco1 [Compound 5b, N-(3-Methyl-4-phenylthiazol-2(3H)-yliene)furan-2-carboxamide] | 107% | –
17 | 5.95 | Cn1c(-c2ccccc2)csc1=NC(=O)c1ccc(Cl)cc1 [Compound 5c, 4-Chloro-N-(3-methyl-4-phenylthiazol-2(3H)-ylidene)benzamide] | 98.2% | –
18 | – | Cn1c(-c2ccccc2)cs/c1=N/C(=O)c1ccc(Br)cc1 [Compound 5d, 4-Bromo-N-(3-methyl-4-phenylthiazol-2(3H)-yliene)benzamide] | 63.8% | –
19 | – | COc1cc(C(=O)/N=c2/scc(-c3ccccc3)n2C)cc(OC)c1OC [Compound 5e, 3,4,5-Trimethoxy-N-(3-methyl-4-phenylthiazol-2(3H)-yliene)benzamide] | 75.4% | –
20 | – | Cc1ccc(-c2cs/c(=N/C(=O)c3cccs3)n2C)c(C)c1 [Compound 5f, N-(4-(2,4-dimethylphenyl)-3-methylthiazol-2(3H)-yliene)thiophene-2-carboxamide] | 102% | –
21 | – | COc1ccc(C(=O)N=c2scc(-c3ccccc3)n2C)cc1OC [Compound 5g, 3,4-Dimethoxy-N-(3-methyl-4-phenylthiazol-2(3H)-yliene)benzamide] | – | Effect on cell proliferation (colony formation) (% of vehicle control) [1]: 40.9%
22 | – | Cn1c(-c2ccccc2)cs/c1=N/C(=O)c1cccnc1 [Compound 5h, N-(3-Methyl-4-phenylthiazol-2(3H)-yliene)nicotinamide] | 112% | –
23 | – | CCn1c(-c2ccccc2)csc1=NC(=O)c1cccs1 [Compound 5i, N-(3-Ethyl-4-phenylthiazol-2(3H)-yliene)thiophene-2-carboxamide] | – | Effect on cell proliferation (colony formation) (% of vehicle control) [1]: 97.7%; cytotoxicity (in words) [1]: not toxic; pIC50 [2]: 5.68; suppression of clonogenic capability (HeLa cells [3]): 45%
24 | 6.72 | Cn1c(-c2ccccc2)cs/c1=N/C(=O)c1ccccc1 [Compound 5j, N-(3-Methyl-4-phenylthiazol-2(3H)-yliene)benzamide] | 25.2% | inhibition at 10 µM [1]: 75%; cytotoxicity (in words) [1]: strong inhibitor of cell proliferation; cytotoxicity (in words) (HeLa cells [3]): strong inhibitor of cell proliferation
25 | 6.75 | Cc1ccc(-c2cs/c(=N/C(=O)c3ccccc3)n2C)c(C)c1 [Compound 5k, N-(4-(2,4-Dimethylphenyl)-3-methylthiazol-2(3H)-yliene)-benzamide] | 121% | cytotoxicity (in words) [1]: no apparent cell toxicity; also recorded: no apparent cytotoxity; localization of fascin in actin-rich membrane regions (in words) [4]: notably missing from the actin-rich membrane regions; inhibition at 10 µM (HeLa cells [5]): > 85%; loss of migratory capacity [6]: ~80%; cytotoxicity (in words) (HeLa cells [3]): no apparent cytotoxity; reduction in f-actin intensity [7]: 55%; blocking cell invasion (in words) [8]: most potent compound in blocking cell invasion
